Test results as given in DBAASP.
In brackets after ≈: the same amount, converted by molar mass. Each block holds one compound with its values, some of them ahead of it.

Experiments:
Assay in all cases: ≥ marks a high value that may be exact or a test limit, other limits are often not marked, values filed in µg/mL are converted to µM
[1] = test system: Staphylococcus epidermidis
Escherichia coli UTI89 = test system: Escherichia coli UTI89
[2] = test system: Salmonella enterica subsp. enterica serovar Typhimurium ATCC 14028
[3] = test system: Escherichia coli K12 MG1655
[4] = test system: Escherichia coli ATCC 25922
[5] = test system: Staphylococcus aureus LAC
[6] = test system: Enterococcus faecalis ATCC 19433
[7] = test system: Escherichia coli BW25113 ΔsbmA
[8] = test system: Staphylococcus aureus ATCC 25923
[9] = test system: Klebsiella pneumoniae ATCC 700603
[10] = test system: Pseudomonas aeruginosa ATCC 27853
Escherichia coli BW25113 = test system: Escherichia coli BW25113
[11] = test system: Acinetobacter baumannii ATCC 19606
Escherichia coli = test system: Escherichia coli
[12] = test system: Pseudomonas aeruginosa K799
[13] = test system: Aeromonas salmonicida 97-4
[14] = test system: Staphylococcus aureus C623
Escherichia coli DC2 = test system: Escherichia coli DC2
[15] = test system: Escherichia coli CGSC 4908
[16] = test system: Salmonella enterica subsp. enterica serovar Typhimurium ATCC 14028s
[17] = test system: Staphylococcus epidermidis C621
Escherichia coli UB1005 = test system: Escherichia coli UB1005
[18] = test system: Pseudomonas aeruginosa Z61
Candida albicans C627 = test system: Candida albicans C627
[19] = test system: Aeromonas salmonicida 99-1
[20] = test system: Salmonella enterica serovar typhimurium MS7953s
Pseudomonas syringae = test system: Pseudomonas syringae
Escherichia coli BL21 = test system: Escherichia coli BL21
[21] = test system: Streptococcus pyogenes GAS M1T1
[22] = test system: Xanthomonas axonopodis pv. phaseoli ATCC 9563

SMILES: CC[C@H](C)[C@H](NC(=O)[C@H](CCCCN)NC(=O)[C@H](CCC(N)=O)NC(=O)[C@H](Cc1c[nH]c2ccccc12)NC(=O)[C@@H](NC(=O)[C@H](CCCCN)NC(=O)[C@@H](N)CCCCN)[C@@H](C)CC)C(=O)N[C@@H](CCCCN)C(=O)N[C@@H](CC(N)=O)C(=O)N[C@@H](Cc1ccccc1)C(=O)N[C@@H](Cc1ccccc1)C(=O)N[C@@H](CCCN=C(N)N)C(=O)N[C@@H](CCCCN)C(=O)N[C@@H](CC(C)C)C(=O)O [KKIWQKIKNFFRKL]
MIC [1]: 12.5 µM (≈ 23.5 µg/mL) | MIC (Escherichia coli UTI89): 25 µM (≈ 46.9 µg/mL) | MIC [2]: > 50 µM | MIC [3]: ≥ 50 µM

SMILES: CC[C@H](C)[C@H](N)C(=O)N[C@H](C(=O)N[C@H](C(=O)N[C@H](C(=O)N[C@@H](CCCN=C(N)N)C(=O)N[C@@H](CCCN=C(N)N)C(=O)N[C@@H](CCCN=C(N)N)C(=O)N[C@@H](CCCN=C(N)N)C(=O)O)[C@@H](C)CC)[C@@H](C)CC)[C@@H](C)CC [IIIIRRRR]
MIC [4]: > 117 µM | MIC [5]: ≥ 117 µM

SMILES: CC[C@H](C)[C@H](NC(=O)[C@@H]1CCCN1C(=O)[C@H](CCCN=C(N)N)NC(=O)[C@H](CCCN=C(N)N)NC(=O)[C@H](Cc1c[nH]c2ccccc12)NC(=O)[C@@H](N)CCCN=C(N)N)C(=O)N[C@@H](CCCN=C(N)N)C(=O)N[C@@H](CCCN=C(N)N)C(=O)N[C@@H](CCCN=C(N)N)C(=O)N1CCC[C@H]1C(=O)N[C@H](C(=O)N[C@@H](CCCN=C(N)N)C(=O)N1CCC[C@H]1C(=O)N1CCC[C@H]1C(=O)N[C@@H](Cc1ccccc1)C(=O)N[C@@H](Cc1c[nH]c2ccccc12)C(=O)N[C@@H](CCCN=C(N)N)C(=O)O)[C@@H](C)CC [RWRRPIRRRPIRPPFWR]
MIC [7]: 4 µM (≈ 9.61 µg/mL) | MIC [8]: 64 µM (≈ 154 µg/mL) | MIC [9]: 4 µM (≈ 9.61 µg/mL) | MIC [10]: 32 µM (≈ 76.9 µg/mL) | MIC (Escherichia coli BW25113): 4 µM (≈ 9.61 µg/mL) | MIC [11]: 8 µM (≈ 19.2 µg/mL) | MIC (Escherichia coli): 1.41 µM (≈ 3.4 µg/mL)

SMILES: CC[C@H](C)[C@H](NC(=O)[C@H](CCC(=O)O)NC(=O)[C@H](CC(N)=O)NC(=O)[C@H](CCCCN)NC(=O)[C@H](CC(C)C)NC(=O)[C@H](Cc1ccc(O)cc1)NC(=O)[C@H](CCC(N)=O)NC(=O)[C@H](CCCN=C(N)N)NC(=O)[C@@H](NC(=O)[C@@H](NC(=O)[C@H](CCCCN)NC(=O)[C@H](CCCCN)NC(=O)[C@H](Cc1c[nH]c2ccccc12)NC(=O)[C@H](C)N)[C@@H](C)O)[C@@H](C)CC)C(=O)N[C@@H](CCCCN)C(=O)N[C@@H](CCCCN)C(=O)N[C@@H](CCCCN)C(=O)N[C@@H](Cc1c[nH]c2ccccc12)C(=O)N[C@@H](CCCN=C(N)N)C(=O)N[C@@H](CCCCN)C(=O)N[C@@H](C)C(=O)N[C@H](C(=O)N[C@H](C(=O)N[C@@H](C)C(=O)N[C@@H](Cc1c[nH]c2ccccc12)C(=O)O)[C@@H](C)CC)C(C)C [AWKKTIRQYLKNEIKKKWRKAVIAW]
MIC (Pseudomonas syringae): 8 µM (≈ 25.5 µg/mL) | MIC (Escherichia coli BL21): 2 µM (≈ 6.37 µg/mL) | MIC [21]: 8 µM (≈ 25.5 µg/mL) | MIC [22]: 1 µM (≈ 3.19 µg/mL)

SMILES: CC[C@H](C)[C@H](NC(=O)[C@@H]1CCCN1C(=O)[C@@H]1CCCN1C(=O)[C@H](CCCN=C(N)N)NC(=O)[C@H](Cc1ccccc1)NC(=O)[C@@H]1CCCN1C(=O)[C@@H]1CCCN1C(=O)[C@H](Cc1ccc(O)cc1)NC(=O)[C@H](Cc1ccccc1)NC(=O)[C@@H]1CCCN1C(=O)[C@@H]1CCCN1C(=O)[C@H](CCCN=C(N)N)NC(=O)[C@@H](NC(=O)[C@@H]1CCCN1C(=O)[C@@H]1CCCN1C(=O)[C@H](CCCN=C(N)N)NC(=O)[C@H](CCCN=C(N)N)NC(=O)[C@@H](NC(=O)[C@@H]1CCCN1C(=O)[C@@H]1CCCN1C(=O)[C@@H](N)CCCN=C(N)N)[C@@H](C)CC)[C@@H](C)CC)C(=O)N[C@@H](CCCN=C(N)N)C(=O)N1CCC[C@H]1C(=O)O [RPPIRRPPIRPPFYPPFRPPIRP]
MIC [7]: ≥ 64 µM | MIC [8]: > 64 µM | MIC [9]: > 64 µM | MIC [10]: > 64 µM | MIC [4]: 8 µM (≈ 22.6 µg/mL) | MIC (Escherichia coli BW25113): 4 µM (≈ 11.3 µg/mL) | MIC [2]: > 64 µM | MIC [11]: 8 µM (≈ 22.6 µg/mL)

Second part, the compound after the results:

MIC [6]: ≥ 154 µM
SMILES: CC[C@@H](C)[C@@H](NC(=O)[C@@H](CCCN=C(N)N)NC(=O)[C@@H](CCCN=C(N)N)NC(=O)[C@@H](Cc1c[nH]c2ccccc12)NC(=O)[C@@H](CCC(N)=O)NC(=O)[C@H](N)C(C)C)C(=O)N[C@H](CCCN=C(N)N)C(=O)N[C@@H](C(=O)N[C@H](Cc1c[nH]c2ccccc12)C(=O)N[C@@H](C(=O)N[C@@H](C(=O)N[C@H](CCCN=C(N)N)C(=O)O)[C@H](C)CC)C(C)C)C(C)C [VQWRRIRVWVIR]

MIC [1]: ≥ 50 µM | MIC (Escherichia coli UTI89): 12.5 µM (≈ 23.5 µg/mL) | MIC [2]: > 50 µM | MIC [3]: 12.5 µM (≈ 23.5 µg/mL)
SMILES: CC[C@H](C)[C@H](NC(=O)[C@H](CCCCN)NC(=O)[C@H](CCC(N)=O)NC(=O)[C@H](Cc1c[nH]c2ccccc12)NC(=O)[C@@H](NC(=O)[C@H](CCCCN)NC(=O)[C@@H](N)CCCCN)[C@@H](C)CC)C(=O)N[C@@H](CCCN=C(N)N)C(=O)N[C@@H](CC(N)=O)C(=O)N[C@@H](Cc1ccccc1)C(=O)N[C@@H](Cc1ccccc1)C(=O)N[C@@H](CCC(N)=O)C(=O)N[C@@H](CCCCN)C(=O)N[C@@H](CC(C)C)C(=O)O [KKIWQKIRNFFQKL]

MIC [12]: 11.6 µM (≈ 32 µg/mL) | MIC [13]: 2.9 µM (≈ 7.99 µg/mL) | MIC [14]: 23.2 µM (≈ 64 µg/mL) | MIC (Escherichia coli DC2): 1.45 µM (≈ 4 µg/mL) | MIC [15]: 1.45 µM (≈ 4 µg/mL) | MIC [16]: 11.6 µM (≈ 32 µg/mL) | MIC [17]: 23.2 µM (≈ 64 µg/mL) | MIC (Escherichia coli UB1005): 5.8 µM (≈ 16 µg/mL) | MIC [18]: 1.45 µM (≈ 4 µg/mL) | MIC (Candida albicans C627): 11.6 µM (≈ 32 µg/mL) | MIC [19]: 2.9 µM (≈ 7.99 µg/mL) | MIC [20]: 1.45 µM (≈ 4 µg/mL)
SMILES: CC(=O)[C@H](CC(C)C)NC(=O)[C@H](Cc1ccc(O)cc1)NC(=O)[C@H](Cc1cnc[nH]1)NC(=O)[C@H](CC(=O)O)NC(=O)[C@H](CC(C)C)NC(=O)[C@H](C)NC(=O)[C@H](CC(C)C)NC(=O)CNC(=O)CNC(=O)[C@@H](NC(=O)[C@@H](NC(=O)[C@H](CCCCN)NC(=O)CNC(=O)[C@@H](NC(=O)[C@H](CCCCN)NC(=O)[C@H](CCCCN)NC(=O)[C@H](C)NC(=O)[C@H](CCCCN)NC(=O)[C@H](CCCNC(=N)N)NC(=O)[C@H](Cc1ccccc1)NC(=O)[C@@H](NC(=O)[C@H](CO)NC(=O)[C@H](CCCCN)NC(=O)[C@H](Cc1c[nH]c2ccccc12)NC(=O)CN)C(C)C)C(C)C)[C@@H](C)O)C(C)C [GWKSVFRKAKKVGKTVGGLALDHYL]

MIC [4]: > 98.8 µM | MIC [5]: ≥ 98.8 µM
SMILES: NC(N)=NCCC[C@H](NC(=O)[C@H](CCCN=C(N)N)NC(=O)[C@H](CCCN=C(N)N)NC(=O)[C@H](CCCN=C(N)N)NC(=O)[C@H](Cc1ccc(O)cc1)NC(=O)[C@H](Cc1ccc(O)cc1)NC(=O)[C@H](Cc1ccc(O)cc1)NC(=O)[C@@H](N)Cc1ccc(O)cc1)C(=O)O [YYYYRRRR]

MIC [12]: 14.2 µM (≈ 32 µg/mL) | MIC [13]: 14.2 µM (≈ 32 µg/mL) | MIC [14]: 28.3 µM (≈ 63.9 µg/mL) | MIC (Escherichia coli DC2): 14.2 µM (≈ 32 µg/mL) | MIC [15]: 14.2 µM (≈ 32 µg/mL) | MIC [16]: 28.3 µM (≈ 63.9 µg/mL) | MIC [17]: 14.2 µM (≈ 32 µg/mL) | MIC (Escherichia coli UB1005): 14.2 µM (≈ 32 µg/mL) | MIC [18]: 3.54 µM (≈ 7.99 µg/mL) | MIC (Candida albicans C627): 28.3 µM (≈ 63.9 µg/mL) | MIC [19]: 28.3 µM (≈ 63.9 µg/mL) | MIC [20]: 7.08 µM (≈ 16 µg/mL)
SMILES: CC[C@H](C)[C@H](NC(=O)[C@H](CCCCN)NC(=O)CNC(=O)[C@@H](NC(=O)[C@H](Cc1cnc[nH]1)NC(=O)[C@H](Cc1cnc[nH]1)NC(=O)[C@@H](NC(=O)CNC(=O)[C@H](Cc1cnc[nH]1)NC(=O)[C@H](Cc1ccccc1)NC(=O)[C@H](CC(C)C)NC(=O)[C@H](CC(C)C)NC(=O)[C@H](CCCNC(=N)N)NC(=O)[C@H](Cc1ccccc1)NC(=O)[C@@H](N)Cc1ccccc1)C(C)C)C(C)C)C(=O)N[C@@H](CCCCN)C(=O)N1CCC[C@H]1C(=O)N[C@@H](CCCNC(=N)N)C(=O)N[C@@H](C)C(C)=O [FFRLLFHGVHHVGKIKPRA]
